# Test results as given in patent US11318108B2, “Use of carotenoid derivatives to reduce the toxicity and increase the efficacy of anti-EGFR antitumor treatments” (ASSOCIAZIONE ONCOLOGICA MILANESE AMO LA VITA ONLUS, priority 2017, dated 2022).
# Tests used:
# [1] = test system: cutaneous and/or mucosal toxicity induced by anti-EGFR drugs; experiment: administration of lycopene to patients treated with anti-EGFR drugs; format: in vivo
# From the text: The regression has been so significant that patients, who could not shave the beard before the treatment with lycopene, could perform normal shaving after 2 weeks from the daily administration of lycopene.
# [2] = cited from earlier work
# [3] = patients affected by paronychia due to anti-EGFR drugs
# [4] = dosage of treatment group A (6.5 mg tablets, 3 tablets/day)
compound,measurement,setting,value
CC(C)=CCC/C(C)=C/C=C/C(C)=C/C=C/C(C)=C/C=C/C=C(C)/C=C/C=C(C)/C=C/C=C(\C)CCC=C(C)C [lycopene],regression of pustular injuries,"[1]; male patients of age between 35 and 55 years treated with anti-EGFR drugs, already presenting pustular injuries",significant regression
same,time from daily administration until normal shaving possible,"[1]; male patients who could not shave the beard before treatment, daily administration",2 weeks
same,functional ability of hand fingers,[1]; [3],recover the lost functional ability
same,nail growth and strength,[1]; [3],recover the normal nail growth and strength
same,pain condition in paronychia,[1]; [3],improvement of the pain condition
same,inflammation of paronychia,[1]; patients affected by paronychia due to anti-EGFR drugs with functional disabling of the hand fingers,resolution of the inflammation
same,regression of the rosiness (diffuse erythema of the face),[1]; patients treated with anti-EGFR drugs,significant regression of the rosiness
same,onset/extension of rosiness coloration,[1]; some patients not yet affected by erythema,delayed and/or decreased the extension of such coloration
same,side effects during chronic intake,"[2]; chronic intake, several studies",absence of relevant side effects
same,observed safe level of intake (OSL),[2]; chronic intake,up to 75 mg/day
same,antioxidant effects at the trial dosage,[2]; [4],significant antioxidant effects
same,side effects at the trial dosage,[2]; [4],not to have relevant side effects
